Experimental findings from US9918983B2, “Suicidal LSD1 inhibitors targeting SOX2-expressing cancer cells” (THE BOARD OF REGENTS OF THE NEVADA SYSTEM OF HIGHER …, priority 2013, dated 2018) are described below.

The structures appear in SMILES notation.

One assay deals with BT-549 cells. In words: Cell growth/viability (MTT, microscopy). As to conditions: BT549 cells, 50 μM, 30 hours. Type of assay: cell-based, human. Here is the method: (§1) Lung, breast, ovarian, and other carcinoma cells were either obtained from American Type Culture Collection (ATCC) or from the DTP and DCTD Tumor Repository of National Cancer Institute (the NCI-60 cancer cell line panel), operated by Charles River Laboratory, Inc., as listed in Table 1. They were cultured according to instructions and treated with various concentrations of LSD1 inhibitors for 30-36 hours for mRNA analysis by quantitative real time RT-PCR or for 30-48 hours for protein analysis and the cell viability assays using Western blotting or microscopy and MTT assays as described previously (Wang, J., et al. (2011) Cancer Research 71, 7238-7249).
(§2) Alternatively, cell viability assays were conducted as previously described (Wang, J., et al. (2011) Cancer Research 71, 7238-7249). For the MTT assay, cells were seeded onto 96-well culture plates with a density of 2000-5000 cells/well, and incubated with CBB1003 or CBB1007 at various concentrations from 1 to 100 μM for 30-48 hours, depending cell growth rate. Dimethylsulfoxide (DMSO) was used as a solvent control. MTT was added to a final concentration of 0.5 mg/mL and cells were re-incubated for 4 hours. After removing the medium, 200 μL DMSO was added to dissolve formazan, followed by incubation for 10 minutes, and absorbance was measured at 490 nm by a Bio Red microplate reader. All assays were performed in triplicates for each concentration. The cell viability rate was calculated as the relative percentage of MTT absorption as follows: % cell viability=(mean experimental absorbance/mean control absorbance)×100.

Another assay deals with SK-BR-3 cells. In words: Cell growth/viability (MTT, microscopy). The following applies: 50 μM, 30 hours. In kind it is cell-based, human. Here is the method:
as §1, §2

In another assay the test system is IGROV-1 cells. In words: Cell growth/viability (MTT, microscopy). Type of assay: cell-based, human. The following applies: 50 μM, 30 hours. As to the method:
as §1, §2

The next assay has as its system HS38.T cells. The assay can be described thus: Cell growth/viability (MTT, microscopy). In kind it is cell-based, human. As to conditions: 50 μM, 30 hours. As to the method:
as §1, §2

Another assay deals with MCF7 cells. In words: Cell growth/viability (MTT, microscopy). The following applies: 50 μM, 30 hours. Type of assay: cell-based, human. Here is the method: as §1, §2
A further assay has as its system SKOV-3 cells. The assay can be described thus: Cell growth/viability (MTT, microscopy). In kind it is cell-based, human. As to conditions: 50 μM, 30 hours. Here is the method: as §1, §2
In assay [1] the target is T1, recombinant LSD1 (GST-LSD1) (Homo sapiens, UniProt O60341).
T1 construct: Human LSD1 and HDAC1 full-length cDNAs were obtained from Open Biosystems; GST (N, cleaved yes); made in house; host or cells: Escherichia coli BL21
In words: In vitro demethylation assay, recombinant LSD1, H3K4me2 peptide. Type of assay: biochemical. The following applies: dimethylated H3K4 peptide; 50 μM CBB1007 or 2 μM MS-275. The source says: H3K4me2 and H4K16ac were purchased from AnaSpec and Shanghai Science Peptide Biological Technology Co., Ltd., respectively. Human LSD1 and HDAC1 full-length cDNAs were obtained from Open Biosystems. Human CoREST cDNA was amplified by reverse transcription-PCR (RT-PCR) using mRNA isolated from HeLa cells. These cDNAs were fully sequenced and cloned into the pGEX-KG or pET28a vector and expressed as the glutathione S-transferase (GST)- or His-tagged fusion proteins in the Escherichia coli BL21 strain and affinity purified with glutathione or Ni-Sepharose (GE Healthcare, United Kingdom) resin. […]
For a typical deacetylation assay, 1 μg rHDAC1 or 1 μg immunoprecipitated endogenous HDAC1-protein A complexes (from two 10-cm dishes) was incubated with 0.4 μg H4K16ac peptide in the presence or absence of 50 μM CBB1007 or 2 μM MS-275 at 30° C. for 1 h. The percentages of deacetylated products were analyzed by mass spectrometry, and the data were analyzed by GraphPad Prism (version 5) software. The reaction products were analyzed by mass spectrometry to separate the peptide substrate (H4K16ac) and the product (H4K16), as previously described (Wang, J., et al. (2011) Cancer Research 71, 7238-7249). […]

The subject of another assay is Sox2. The assay can be described thus: Sox2 protein level by western blotting in carcinoma cells. In kind it is cell-based, human. The arrangement: dose or concentration left out as unconfirmed. As to conditions: indicated carcinoma cells, 30 hr. The source says:
Log-phase growing cancer cells were directly lysed in a buffer containing 0.5% SDS. Proteins in the lysates were equalized and analyzed by Western blotting using antibodies against Sox2, LSD1, H3K4Me1, H3K4Me2, Oct4, and other proteins as described previously or in the figure descriptions (Wang, J., et al. (2011) Cancer Research 71, 7238-7249). For immunohistochemical staining, rabbit monoclonal anti-LSD1 (clone C69G12, cat. #2184) and anti-Sox2 (clone D6D9, cat. #3579) antibodies were obtained from Cell Signaling. Rabbit anti-Sox2 polyclonal antibodies were raised using the purified GST-Sox2 fusion protein as the antigen.
Referring to FIG. 11A, inactivation of LSD1 by LSD1 inhibitors or siRNAs caused the downregulation of Sox2. The indicated carcinoma cells were treated with […] of the LSD1 inhibitors CBB1007 and CBB1003 for 30 hr or with 50 nM of Luc or LSD1 siRNAs for 60 hr. The protein levels of LSD1, Sox2, Lin28, CUL1, and histone H3 were analyzed by western blotting.

Another assay concerns the target T2, HDAC1-protein A complex (Mus musculus, UniProt O09106).
T2 construct: 1 μg immunoprecipitated endogenous HDAC1-protein A complexes; endogenous in cells; host or cells: F9 mouse teratocarcinoma cells, anti-HDAC1 immunoprecipitate on protein A-Sepharose
The assay can be described thus: In vitro deacetylation assay, immunoaffinity-purified HDAC1-protein A complex from F9 cells. In kind it is biochemical. The following applies: H4K16ac peptide; 50 μM CBB1007 or 2 μM MS-275.

T2 sequence (O09106 whole entry, other chains not shown): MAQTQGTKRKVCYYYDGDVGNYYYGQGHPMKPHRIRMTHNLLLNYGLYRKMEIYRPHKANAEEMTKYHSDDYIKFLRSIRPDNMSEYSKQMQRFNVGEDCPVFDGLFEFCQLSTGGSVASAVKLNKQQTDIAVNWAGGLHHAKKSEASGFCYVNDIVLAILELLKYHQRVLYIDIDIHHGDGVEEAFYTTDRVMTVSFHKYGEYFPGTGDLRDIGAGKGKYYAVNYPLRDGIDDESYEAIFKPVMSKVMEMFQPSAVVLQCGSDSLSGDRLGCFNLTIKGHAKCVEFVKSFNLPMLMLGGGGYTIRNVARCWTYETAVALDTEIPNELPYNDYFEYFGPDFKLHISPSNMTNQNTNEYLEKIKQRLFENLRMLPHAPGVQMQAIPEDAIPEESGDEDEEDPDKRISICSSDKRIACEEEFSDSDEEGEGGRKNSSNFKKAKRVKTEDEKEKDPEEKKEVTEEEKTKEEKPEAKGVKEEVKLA
T2 sequence (Q8CFE3 whole entry partner, other chains not shown): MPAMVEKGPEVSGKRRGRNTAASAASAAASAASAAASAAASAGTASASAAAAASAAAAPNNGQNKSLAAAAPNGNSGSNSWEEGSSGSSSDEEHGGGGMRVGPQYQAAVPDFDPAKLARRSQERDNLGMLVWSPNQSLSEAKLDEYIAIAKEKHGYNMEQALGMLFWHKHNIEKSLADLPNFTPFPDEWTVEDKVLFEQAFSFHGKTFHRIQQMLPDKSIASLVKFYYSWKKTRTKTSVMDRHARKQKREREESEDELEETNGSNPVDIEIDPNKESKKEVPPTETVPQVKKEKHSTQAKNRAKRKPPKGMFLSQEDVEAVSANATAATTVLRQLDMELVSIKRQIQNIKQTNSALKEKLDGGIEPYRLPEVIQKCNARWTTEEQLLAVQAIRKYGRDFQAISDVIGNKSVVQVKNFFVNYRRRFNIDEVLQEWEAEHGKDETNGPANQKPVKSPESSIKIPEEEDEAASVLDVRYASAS
From the text for HDAC1-protein A complex: The immunocomplexes were captured by protein A-Sepharose. Isolated LSD1-protein A or HDAC1-protein A complexes were verified by Western blotting with LSD1 and HDAC1 antibodies.

`COC(=O)c1cc(CN2CCN(C(=N)N)CC2)cc(C(=O)N2CCN(C(=O)c3ccc(C(=N)N)cc3)CC2)c1` [CBB1007]: the cell growth entry in the assay with BT-549 cells is listed as “not sensitive”; in the assay with SK-BR-3 cells, “not sensitive”; with IGROV-1 cells it was “sensitive”; in the assay with HS38.T cells, “not sensitive”; with MCF7 cells, “sensitive”; with SKOV-3 cells, “sensitive”. For the same molecule, the “demethylation activity of GST-LSD1” value in assay [1] is “sensitive”. The Sox2 protein level result in the assay on Sox2 is on record as “downregulation”. The “deacetylase activity of immunoaffinity-purified HDAC1 (HDAC1-protein A)” value on HDAC1-protein A complex is reported as “sufficient to inhibit the deacetylase activity”.
